Measurements reported in patent US11174271B2, “6-membered uracil isosteres” (CV6 Therapeutics (NI) Limited, priority 2016, dated 2021).

Biological target: T1, recombinant human deoxyuridine nucleotidohydrolase (dUTPase) (Homo sapiens, UniProt P33316)
T1 construct: made in house
T1 sequence (P33316 1-164 isoform P33316-2): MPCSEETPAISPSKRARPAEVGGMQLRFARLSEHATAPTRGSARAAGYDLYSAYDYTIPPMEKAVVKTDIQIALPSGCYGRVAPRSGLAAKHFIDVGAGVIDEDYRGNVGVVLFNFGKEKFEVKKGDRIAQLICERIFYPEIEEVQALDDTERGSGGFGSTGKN
Assay: fluorescence-based dUTPase inhibition assay (DNA polymerase-based dUTP detection)
Assay type: biochemical
Conditions: mean across three concentrations, typically 100, 50 and 25 μmol/L, compared to the in-run positive control
Text: Recombinant human deoxyuridine nucleotidohydrolase (dUTPase) is expressed and purified as described in Ladner R D, Carr S A, Huddleston M J, McNulty D E, Caradonna S J. J Biol Chem. 1996 Mar. 29; 271(13):7752-7. All drugs stocks are aliquoted and diluted as appropriate prior to use. The oligonucelotide primer, templates and fluorophore- and quencher-labeled detection probes are synthesized by Integrated DNA Technologies (Coralville, Iowa), subjected to polyacrylamide gel electrophoresis purification and reconstituted in Omnipur sterile nuclease-free water (EMD Chemicals USA, Gibbstown N.J.) at a stock concentration of 100 μmol/L. The two non-emissive (dark) quenching molecules incorporated into the detection probes include the Iowa black fluorescein quencher (IBFQ; absorption max 531 nm) and ZEN (non-abbreviation; absorption max 532 nm). The fluorescent label utilized is 6-FAM (5′-carboxyfluorescein; excitation max.=494 nm, emission max.=520 nm). Probes are further diluted to a working stock of 10 μmol/L and aliquoted to avoid repeated freeze/thaw cycles. AmpliTaq Gold DNA Polymerase, GeneAmp 10×PCR Buffer 2, MgCl2 and MicroAmp Optical 96-well Reaction Plates are purchased from Applied Biosystems (Carlsbad, Calif.). dNTPs are purchased individually at stock concentrations of 100 mmol/L from New England Biolabs at HPLC-certified >99% purity (Ipswich, Mass.).
Reaction mixtures contained primer, probe and template at an equimolar final concentration of 0.4 μmol/L. Magnesium chloride (MgCl2) is included at a final concentration of 2 mmol/L. Non-limiting dNTPs are included in the reaction mix in excess at a final concentration of 100 μmol/L (dUTP/dTTP is excluded). AmpliTaq Gold DNA polymerase is added at 0.875 U/reaction, 2.5 μl of 10×PCR buffer 2 added and nuclease-free ddH2O added to a final reaction volume of 25 μl. For dUTP inhibition analysis, the volume of ddH2O is further modified to accommodate an additional 1 μl of dUTPase (10 ng/μl) and 1 μl of inhibitor or DMSO control. Thermal profiling and fluorescence detection is performed using a customized thermal program on board a Roche Lightcycler LC480 Instrument II. For analysis of dNTPs, the thermal profile consisted of an 8 min 37° C. step followed by a 10 min 95° C. step to ‘hot-start’ the Taq polymerase and a primer extension time of up to 30 min at 60° C. Raw fluorescence spectra for 6-FAM is measured at specified time intervals to follow assay progression on board a Roche LightCycler 480 Software Version 1.5 and exported and analyzed in Microsoft Excel (Microsoft, Redmond Wash.) and Prism (GraphPad Software, La Jolla Calif.). Fluorescence values for blank reactions (limiting dNTP omitted) are subtracted to give normalized fluorescence units (NFU) to account for background fluorescence.
Test compounds were screened in a fluorescence-based assay. The assay employed a DNA polymerase-based approach utilizing an oligonucleotide template with 3 distinct regions: a 3′ primer binding region, a mid-template dUTP/thymidine triphosphate (TTP) detection region and a 5′ 6-[…] (FAM)-labeled probe binding region that incorporates a black hole quenching moiety. During the reaction, the probe and primer hybridize to the oligonucleotide template to form the template:primer:probe complex. When Taq polymerase binds to the primer in the TPP complex and dUTP is present, successful extension of the nascent strand occurs and the inherent 5′ to 3′ exonuclease activity of Taq polymerase cleaves and displaces the 6-FAM-labeled probe in a 5′ to 3′ direction, releasing the 6-FAM fluorophore from its proximity to the […]. This displacement effectively disrupts the Förster resonance energy transfer (FRET) and the resulting fluorescence detected upon excitation is directly proportional to the amount of the dUTP available in the assay for incorporation. […]

| % relative inhibition vs. positive control | SMILES | other results |
| --- | --- | --- |
| – | CC(C)(NS(=O)(=O)CC/C=C/CC1CCC(=O)NC1=O)c1ccc(F)c(OCC2CC2)c1 (single isomer, unassigned) [Example 79 trans isomer 1, (E)-N-(2-(3-(cyclopropylmethoxy)-4-fluorophenyl)propan-2-yl)-5-(2,6-dioxopiperidin-3-yl)pent-3-ene-1-sulfonamide] | % relative inhibition vs. positive control (listed as 79 trans isomer 1): 22% |
| – | CC(C)(NS(=O)(=O)CC/C=C/CC1CCC(=O)NC1=O)c1ccc(F)c(OCC2CC2)c1 (single isomer, unassigned) [Example 79 trans isomer 2, (E)-N-(2-(3-(cyclopropylmethoxy)-4-fluorophenyl)propan-2-yl)-5-(2,6-dioxopiperidin-3-yl)pent-3-ene-1-sulfonamide] | % relative inhibition vs. positive control (listed as 79 trans isomer 2): 51% |
| – | CC(C)(NS(=O)(=O)CCCCCC1CCC(=O)NC1=O)c1ccc(F)c(OCC2CC2)c1 (single isomer, unassigned) [Example 81 isomer 1, N-(2-(3-(cyclopropylmethoxy)-4-fluorophenyl)propan-2-yl)-5-(2,6-dioxopiperidin-3-yl)pentane-1-sulfonamide] | % relative inhibition vs. positive control (listed as 81 isomer 1): 16% |
| – | CC(C)(NS(=O)(=O)CCCCCC1CCC(=O)NC1=O)c1ccc(F)c(OCC2CC2)c1 (single isomer, unassigned) [Example 81 isomer 2, N-(2-(3-(cyclopropylmethoxy)-4-fluorophenyl)propan-2-yl)-5-(2,6-dioxopiperidin-3-yl)pentane-1-sulfonamide] | % relative inhibition vs. positive control (listed as 81 isomer 2): 41% |
| – | CC[C@@H](NS(=O)(=O)CC/C=C/CC1CCC(=O)NC1=O)c1ccc(F)c(OCC2CC2)c1 (single isomer, unassigned) [Example 88 trans isomer 1] | % relative inhibition vs. positive control (listed as 88 trans isomer 1): 10% |
| – | CC[C@@H](NS(=O)(=O)CC/C=C/CC1CCC(=O)NC1=O)c1ccc(F)c(OCC2CC2)c1 (single isomer, unassigned) [Example 88 trans isomer 2] | % relative inhibition vs. positive control (listed as 88 trans isomer 2): 167% |
| 70% | CC(C)(NS(=O)(=O)CC/C=C/CC1CCC(=O)NC1=O)c1ccc(F)c(OCC2CC2)c1 (stereo not shown) [Example 79, (E)-N-(2-(3-(cyclopropylmethoxy)-4-fluorophenyl)propan-2-yl)-5-(2,6-dioxopiperidin-3-yl)pent-3-ene-1-sulfonamide] | – |
| 49% | CC(C)(NS(=O)(=O)CCCCCC1CCC(=O)NC1=O)c1ccc(F)c(OCC2CC2)c1 (stereo not shown) [Example 81, N-(2-(3-(cyclopropylmethoxy)-4-fluorophenyl)propan-2-yl)-5-(2,6-dioxopiperidin-3-yl)pentane-1-sulfonamide] | – |
| 26% | CC(C)(NS(=O)(=O)C/C=C/CC1CCC(=O)NC1=O)c1ccc(F)c(OCC2CC2)c1 (stereo not shown) [Example 82, (E)-N-(2-(3-(cyclopropylmethoxy)-4-fluorophenyl)propan-2-yl)-4-(2,6-dioxopiperidin-3-yl)but-2-ene-1-sulfonamide] | – |
| 45% | CC(C)(NS(=O)(=O)CCC/C=C/CC1CCC(=O)NC1=O)c1ccc(F)c(OCC2CC2)c1 (stereo not shown) [Example 83, (E)-N-(2-(3-(cyclopropylmethoxy)-4-fluorophenyl)propan-2-yl)-6-(2,6-dioxopiperidin-3-yl)hex-4-ene-1-sulfonamide] | – |
| 22% | CC(C)(NS(=O)(=O)CC/C=C/CC1CCC(=O)NC1=O)c1cccc(OCC2CC2)c1 (stereo not shown) [Example 84, (E)-N-(2-(3-(cyclopropylmethoxy)phenyl)propan-2-yl)-5-(2,6-dioxopiperidin-3-yl)pent-3-ene-1-sulfonamide] | – |
| 11% | CC(C)(NS(=O)(=O)CCCCCNC1CCC(=O)NC1=O)c1ccc(F)c(OCC2CC2)c1 (stereo not shown) [Example 85, N-(2-(3-(cyclopropylmethoxy)-4-fluorophenyl)propan-2-yl)-5-((2,6-dioxopiperidin-3-yl)amino)pentane-1-sulfonamide] | – |
| 6% | CC[C@@](O)(CNS(=O)(=O)CCCNC1CCC(=O)NC1=O)c1ccc(F)c(OCC2CC2)c1 (stereo partly drawn) [Example 86, N—((S)-2-(3-(cyclopropylmethoxy)-4-fluorophenyl)-2-hydroxybutyl)-3-((2,6-dioxopiperidin-3-yl)amino)propane-1-sulfonamide] | – |
| 26% | CC(C)(NS(=O)(=O)C/C=C/CCC1CCC(=O)NC1=O)c1ccc(F)c(OCC2CC2)c1 (stereo not shown) [Example 87, (E)-N-(2-(3-(cyclopropylmethoxy)-4-fluorophenyl)propan-2-yl)-5-(2,6-dioxopiperidin-3-yl)pent-2-ene-1-sulfonamide] | – |
| 80% | CC[C@@H](NS(=O)(=O)CC/C=C/CC1CCC(=O)NC1=O)c1ccc(F)c(OCC2CC2)c1 (stereo partly drawn) [Example 88, (E)-N—((R)-1-(3-(cyclopropylmethoxy)-4-fluorophenyl)propyl)-5-(2,6-dioxopiperidin-3-yl)pent-3-ene-1-sulfonamide] | – |
| 65% | CC[C@@](O)(CNS(=O)(=O)C/C=C/CC1CCC(=O)NC1=O)c1ccc(F)c(OCC2CC2)c1 (stereo partly drawn) [Example 89, (E)-N—((S)-2-(3-(cyclopropylmethoxy)-4-fluorophenyl)-2-hydroxybutyl)-4-(2,6-dioxopiperidin-3-yl)but-2-ene-1-sulfonamide] | – |
| 82% | CC[C@@](O)(CNS(=O)(=O)CCCCC1CCC(=O)NC1=O)c1ccc(F)c(OCC2CC2)c1 (stereo partly drawn) [Example 90, N—((S)-2-(3-(cyclopropylmethoxy)-4-fluorophenyl)-2-hydroxybutyl)-4-(2,6-dioxopiperidin-3-yl)butane-1-sulfonamide] | – |
| 10% | CC[C@@H](NS(=O)(=O)CCCCCC1CCC(=O)NC1=O)c1ccc(F)c(OCC2CC2)c1 (stereo partly drawn) [Example 91, N—((R)-1-(3-(cyclopropylmethoxy)-4-fluorophenyl)propyl)-5-(2,6-dioxopiperidin-3-yl)pentane-1-sulfonamide] | – |
| 81% | CC(C)(O)COc1cc(C2(NS(=O)(=O)CC/C=C/CN3CCC(=O)NC3=O)CC2)ccc1F [Example 92, (E)-5-(2,4-dioxotetrahydropyrimidin-1(2H)-yl)-N-(1-(4-fluoro-3-(2-hydroxy-2-methylpropoxy)phenyl)cyclopropyl)pent-3-ene-1-sulfonamide] | – |
